Patent US20160046618A1, “Cyclopropyl Fused Thiazin-2-Amine Compounds as Beta-Secretase Inhibitors and Methods of Use” (AMGEN INC., priority 2014, published 2016)

Key:
human recombinant BACE1 = human recombinant BACE1 (Homo sapiens (Human), UniProt P56817); assay: In vitro enzymatic BACE1 FRET assay; format: biochemical; details: read-out: IC50 IP (μM) BACE1 enzyme
Method in brief: (§1)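 Ni-NTA-purified recombinant enzyme incubated 1 h with 50 nM FRET peptide substrate (fluorophore and quencher flanking the BACE cleavage site). Reaction stopped with Tris buffer raising pH to neutrality; cleavage-released fluorescence read at ex 488/em 590 nm.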

human recombinant BACE2 = human recombinant BACE2 (Homo sapiens (Human), UniProt Q9Y5Z0); assay: In vitro enzymatic BACE2 FRET assay; format: biochemical; details: read-out: IC50 IP (μM) BACE2 enzyme
Chain of human recombinant BACE2 (Q9Y5Z0 63-518): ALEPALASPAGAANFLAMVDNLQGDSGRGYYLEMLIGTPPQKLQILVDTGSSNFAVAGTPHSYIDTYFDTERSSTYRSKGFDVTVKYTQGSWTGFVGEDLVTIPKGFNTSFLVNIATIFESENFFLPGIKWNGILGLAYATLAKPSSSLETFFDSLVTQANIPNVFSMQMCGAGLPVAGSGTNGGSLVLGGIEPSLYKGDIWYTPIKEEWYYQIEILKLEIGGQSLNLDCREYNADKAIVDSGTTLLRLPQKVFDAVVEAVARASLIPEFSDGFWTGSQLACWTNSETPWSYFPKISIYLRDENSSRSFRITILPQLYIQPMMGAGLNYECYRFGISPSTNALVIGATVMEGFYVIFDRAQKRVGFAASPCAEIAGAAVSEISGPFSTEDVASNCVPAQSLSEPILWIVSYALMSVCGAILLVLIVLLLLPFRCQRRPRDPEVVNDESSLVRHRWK
Method in brief: as §1

[1] = system: Aβ40 in conditioned medium of cells stably expressing Amyloid Precursor Protein (APP); assay: In vitro BACE-1 cell-based assay (Aβ40 sandwich ELISA); details: read-out: IC50 IP (μM) BACE1 cell
Method in brief: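 APP-stable cells, pre-cultured 24 h at 37° C in DMEM/10% FBS, were treated 24 h with compound in a 10-point series starting at 100 μM or 10 μM (0.1% DMSO final). Secreted Aβ40 in conditioned medium was measured by pAb40/biotin-6E10 sandwich ELISA with Europium time-resolved fluorescence; IC50 from percent inhibition versus concentration.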

Recombinant Cat D = Recombinant Cat D (Homo sapiens (Human), UniProt P07339); assay: In vitro enzymatic Cathepsin D (Cat D) FRET assay; format: biochemical; details: read-out: IC50 IP (μM) CatD
Chain of Recombinant Cat D (P07339 65-412): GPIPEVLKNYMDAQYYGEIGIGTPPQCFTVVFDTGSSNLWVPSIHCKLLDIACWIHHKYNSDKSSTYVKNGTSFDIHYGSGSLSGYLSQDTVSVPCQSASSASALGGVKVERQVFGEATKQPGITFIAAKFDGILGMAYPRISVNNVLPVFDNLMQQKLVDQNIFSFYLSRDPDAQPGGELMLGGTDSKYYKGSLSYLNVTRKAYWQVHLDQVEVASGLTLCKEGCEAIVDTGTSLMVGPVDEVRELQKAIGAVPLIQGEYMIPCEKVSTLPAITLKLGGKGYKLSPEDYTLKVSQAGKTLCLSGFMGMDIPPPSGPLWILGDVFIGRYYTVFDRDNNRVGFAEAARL
Method in brief: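 Assay pH is 3.5 (0.05 M citrate, 5 mM CHAPS, 10% DMSO final) with Cat D from CHO cells. A 20 nM quenched peptide substrate is cleaved over one hour; the reaction is ended with Tris and read by fluorescence (ex 500, em 580 nm).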

Chain of human recombinant BACE1 (P56817 46-501): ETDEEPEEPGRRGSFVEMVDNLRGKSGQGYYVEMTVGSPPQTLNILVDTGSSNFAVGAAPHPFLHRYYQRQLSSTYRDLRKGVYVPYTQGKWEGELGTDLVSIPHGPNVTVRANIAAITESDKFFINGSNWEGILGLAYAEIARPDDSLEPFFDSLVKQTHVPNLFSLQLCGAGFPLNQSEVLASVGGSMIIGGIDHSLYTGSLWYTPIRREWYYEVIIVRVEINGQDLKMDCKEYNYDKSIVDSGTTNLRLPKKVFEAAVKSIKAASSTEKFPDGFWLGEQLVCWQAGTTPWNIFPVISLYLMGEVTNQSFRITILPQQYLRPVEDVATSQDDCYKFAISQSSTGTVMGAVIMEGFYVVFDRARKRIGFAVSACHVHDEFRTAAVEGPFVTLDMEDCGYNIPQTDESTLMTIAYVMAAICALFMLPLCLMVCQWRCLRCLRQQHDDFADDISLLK

| SMILES | IC50 (human recombinant BACE1) [nM] | IC50 (human recombinant BACE2) [µM] | IC50 [1] [µM] | IC50 (Recombinant Cat D) [µM] |
| --- | --- | --- | --- | --- |
| C#CCOc1cnc(C(=O)Nc2cc(F)c(F)c([C@@]3(C)N=C(N)S[C@@]4(CNC(=O)OC(C)(C)C)C[C@H]43)c2)cn1 [Example 980, tert-butyl(((1S,5S,6S)-3-amino-5-(2,3-difluoro-5-(5-(prop-2-yn-1-yloxy)pyrazine-2-carboxamido)phenyl)-5-methyl-2-thia-4-azabicyclo[4.1.0]hept-3-en-1-yl)methyl)carbamate] | 0.455 | 0.013 | 0.000747 | 19.8 |
| C#CCOc1cnc(C(=O)Nc2cc(F)c(F)c([C@@]3(C)N=C(N)S[C@@]4(CN)C[C@H]43)c2)cn1 [Example 981, N-(3-((1S,5S,6S)-3-amino-1-(aminomethyl)-5-methyl-2-thia-4-azabicyclo[4.1.0]hept-3-en-5-yl)-4,5-difluorophenyl)-5-(prop-2-yn-1-yloxy)pyrazine-2-carboxamide] | 3.15 | 0.0575 | 0.00074 | 106 |
| C[C@]1(c2cc(NC(=O)c3cnc(OCC(F)(F)F)cn3)ccc2F)N=C(N)S[C@@]2(C(=O)NC3CC3(F)F)C[C@H]21 (stereo partly drawn) [Example 982, (1S,5S,6S)-3-amino-N-(2,2-difluorocyclopropyl)-5-(2-fluoro-5-(5-(2,2,2-trifluoroethoxy)pyrazine-2-carboxamido)phenyl)-5-methyl-2-thia-4-azabicyclo[4.1.0]hept-3-ene-1-carboxamide] | 0.679 | 0.032 | 0.00329 | 175 |
| CC(C)(CF)NC(=O)[C@]12C[C@H]1[C@@](C)(c1cc(NC(=O)c3cnc(OCC(F)(F)F)cn3)ccc1F)N=C(N)S2 [Example 983, (1S,5S,6S)-3-amino-N-(1-fluoro-2-methylpropan-2-yl)-5-(2-fluoro-5-(5-(2,2,2-trifluoroethoxy)pyrazine-2-carboxamido)phenyl)-5-methyl-2-thia-4-azabicyclo[4.1.0]hept-3-ene-1-carboxamide] | 1.51 | 0.174 | 0.00736 | 172 |
| CON(C)C(=O)[C@]12C[C@H]1[C@@](C)(c1cc(NC(=O)c3cnc(OCC(F)(F)F)cn3)ccc1F)N=C(N)S2 [Example 984, (1S,5S,6S)-3-amino-5-(2-fluoro-5-(5-(2,2,2-trifluoroethoxy)pyrazine-2-carboxamido)phenyl)-N-methoxy-N,5-dimethyl-2-thia-4-azabicyclo[4.1.0]hept-3-ene-1-carboxamide] | 0.858 | 0.0217 | 0.00125 | 1110 |
| CNC(=O)[C@]12C[C@H]1[C@@](C)(c1cc(NC(=O)c3ccc(Cl)cn3)ccc1F)N=C(N)S2 [Example 985, (1S,5S,6S)-3-amino-5-(5-(5-chloropicolinamido)-2-fluorophenyl)-N,5-dimethyl-2-thia-4-azabicyclo[4.1.0]hept-3-ene-1-carboxamide] | 0.276 | < 0.00203 | 0.000709 | 1120 |
| CC(C)(C)NC(=O)[C@]12C[C@H]1[C@@](C)(c1cc(NC(=O)c3ccc(C#N)cn3)ccc1F)N=C(N)S2 [Example 986, (1S,5S,6S)-3-amino-N-tert-butyl-5-(5-(((5-cyano-2-pyridinyl)carbonyl)amino)-2-fluorophenyl)-5-methyl-2-thia-4-azabicyclo[4.1.0]hept-3-ene-1-carboxamide] | 1.13 | 0.00598 | 0.00141 | 172 |
| C#CCOc1cnc(C(=O)Nc2ccc(F)c([C@@]3(C)N=C(N)S[C@@]4(C(=O)NC)C[C@H]43)c2)cn1 [Example 987, (1S,5S,6S)-3-amino-5-(2-fluoro-5-(((5-(2-propyn-1-yloxy)-2-pyrazinyl)carbonyl)amino)phenyl)-N,5-dimethyl-2-thia-4-azabicyclo[4.1.0]hept-3-ene-1-carboxamide] | 0.14 | 0.0079 | 0.000229 | 49.9 |
| C#C[C@@H](C)Oc1cnc(C(=O)Nc2ccc(F)c([C@@]3(C)N=C(N)S[C@@]4(COC)C[C@H]43)c2)cn1 [Example 988] | 21.6 | 0.336 | 0.0532 | > 400 |
| C#CCOc1cnc(C(=O)Nc2cnc(OC)c([C@@]3(C)N=C(N)S[C@@]4(C(F)F)C[C@@H]34)c2)cn1 [Example 989, N-(5-((1S,5S,6S)-3-amino-1-(difluoromethyl)-5-methyl-2-thia-4-azabicyclo[4.1.0]hept-3-en-5-yl)-6-methoxy-3-pyridinyl)-5-(2-propyn-1-yloxy)-2-pyrazinecarboxamide] | 0.518 | 0.0406 | 0.00067 | 174 |
| COc1ncc(NC(=O)c2ccc(Cl)cn2)cc1[C@@]1(C)N=C(N)S[C@@]2(C(F)F)C[C@@H]12 [Example 990, N-(5-((1S,5S,6S)-3-amino-1-(difluoromethyl)-5-methyl-2-thia-4-azabicyclo[4.1.0]hept-3-en-5-yl)-6-methoxy-3-pyridinyl)-5-chloro-2-pyridinecarboxamide] | 20.8 | 0.00465 | 0.026 | 67 |
| C[C@]1(c2cc(NC(=O)c3cnc(OCC(F)(F)F)cn3)ccc2F)N=C(N)S[C@@]2(C(=O)N3CC[C@@H](F)C3)C[C@H]21 [Example 991, N-(3-((1S,5S,6S)-3-amino-1-((R)-3-fluoropyrrolidine-1-carbonyl)-5-methyl-2-thia-4-azabicyclo[4.1.0]hept-3-en-5-yl)-4-fluorophenyl)-5-(2,2,2-trifluoroethoxy)pyrazine-2-carboxamide] | 0.297 | 0.0097 | 0.000265 | 664 |
| C[C@]1(c2cc(NC(=O)c3cnc(OCC(F)(F)F)cn3)ccc2F)N=C(N)S[C@@]2(C(=O)N3CC[C@H](F)C3)C[C@H]21 [Example 992, N-(3-((1S,5S,6S)-3-amino-1-((S)-3-fluoropyrrolidine-1-carbonyl)-5-methyl-2-thia-4-azabicyclo[4.1.0]hept-3-en-5-yl)-4-fluorophenyl)-5-(2,2,2-trifluoroethoxy)pyrazine-2-carboxamide] | 0.776 | 0.0125 | 0.000338 | 954 |
| C#C[C@H](C)Oc1cnc(C(=O)Nc2ccc(F)c([C@@]3(C)N=C(N)S[C@@]4(C(=O)NC5CC5)C[C@H]43)c2)cn1 [Example 993, (1S,5S,6S)-3-amino-N-cyclopropyl-5-(2-fluoro-5-(((5-(((1S)-1-methyl-2-propyn-1-yl)oxy)-2-pyrazinyl)carbonyl)amino)phenyl)-5-methyl-2-thia-4-azabicyclo[4.1.0]hept-3-ene-1-carboxamide] | 0.48 | 0.061 | 0.000566 | 255 |
| C#C[C@H](C)Oc1cnc(C(=O)Nc2ccc(F)c([C@@]3(C)N=C(N)S[C@@]4(C(=O)NC(C)(C)C)C[C@H]43)c2)cn1 [Example 994, (1S,5S,6S)-3-amino-N-tert-butyl-5-(2-fluoro-5-(((5-(((1S)-1-methyl-2-propyn-1-yl)oxy)-2-pyrazinyl)carbonyl)amino)phenyl)-5-methyl-2-thia-4-azabicyclo[4.1.0]hept-3-ene-1-carboxamide] | 0.69 | 0.0689 | 0.00116 | 215 |
| CC(C)[C@@H](C)NC(=O)[C@]12C[C@H]1[C@@](C)(c1cc(NC(=O)c3cnc(OCC(F)(F)F)cn3)ccc1F)N=C(N)S2 [Example 997, (1S,5S,6S)-3-amino-5-(2-fluoro-5-(5-(2,2,2-trifluoroethoxy)pyrazine-2-carboxamido)phenyl)-5-methyl-N—((R)-3-methylbutan-2-yl)-2-thia-4-azabicyclo[4.1.0]hept-3-ene-1-carboxamide] | 0.893 | 0.0509 | 0.00672 | 9.48 |
| C[C@]1(c2cc(NC(=O)c3cnc(OCC(F)(F)F)cn3)ccc2F)N=C(N)S[C@@]2(C(=O)N3CCOCC3)C[C@H]21 [Example 998, N-(3-((1S,5S,6S)-3-amino-5-methyl-1-(morpholine-4-carbonyl)-2-thia-4-azabicyclo[4.1.0]hept-3-en-5-yl)-4-fluorophenyl)-5-(2,2,2-trifluoroethoxy)pyrazine-2-carboxamide] | 0.146 | 0.0754 | 0.0017 | > 400 |
| C[C@]1(c2cc(NC(=O)c3cnc(OCC(F)(F)F)cn3)ccc2F)N=C(N)S[C@@]2(C(=O)NCC(F)F)C[C@H]21 [Example 999, (1S,5S,6S)-3-amino-N-(2,2-difluoroethyl)-5-(2-fluoro-5-(5-(2,2,2-trifluoroethoxy)pyrazine-2-carboxamido)phenyl)-5-methyl-2-thia-4-azabicyclo[4.1.0]hept-3-ene-1-carboxamide] | 0.09 | 0.0755 | 0.00613 | 180 |
| CN(C)C(=O)[C@]12C[C@H]1[C@@](C)(c1cc(NC(=O)c3cnc(OCC(F)(F)F)cn3)ccc1F)N=C(N)S2 [Example 1000, (1S,5S,6S)-3-amino-5-(2-fluoro-5-(5-(2,2,2-trifluoroethoxy)pyrazine-2-carboxamido)phenyl)-N,N,5-trimethyl-2-thia-4-azabicyclo[4.1.0]hept-3-ene-1-carboxamide] | 0.07 | 0.00345 | 0.000921 | 1000 |
